The first experiment has as its target T1, Vasopressin V1a receptor (Homo sapiens, UniProt P37288). Briefly: Antagonist activity at human vasopressin 1a receptor expressed in HEK293 cells assessed as inhibition of vasopressin induced IP1 accumulation pretreated for 30 mins measured 1 hr post Ab-Cryptate and IP1-d2 addition by HTRF assay. Format: functional, cell-based.
T1 sequence (P37288 whole entry): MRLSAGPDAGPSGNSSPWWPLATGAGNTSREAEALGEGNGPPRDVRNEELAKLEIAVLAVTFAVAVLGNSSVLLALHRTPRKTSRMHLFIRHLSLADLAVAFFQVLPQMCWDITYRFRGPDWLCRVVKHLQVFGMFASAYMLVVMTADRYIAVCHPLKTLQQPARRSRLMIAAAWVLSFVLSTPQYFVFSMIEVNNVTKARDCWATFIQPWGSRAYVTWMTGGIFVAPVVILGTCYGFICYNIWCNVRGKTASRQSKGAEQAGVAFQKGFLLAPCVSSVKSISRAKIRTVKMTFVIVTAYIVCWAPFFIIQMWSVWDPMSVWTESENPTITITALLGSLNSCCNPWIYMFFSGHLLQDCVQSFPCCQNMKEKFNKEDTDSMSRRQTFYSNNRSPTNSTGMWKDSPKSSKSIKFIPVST
Turning to `COc1cc(CN2CCN(CCCCCCC(=O)N3Cc4cnn(C)c4Nc4ccccc43)CC2)cc(OC)c1`, the IC50 is > 10 µM.

Regarding `Cn1ncc2c1Nc1ccccc1N(C(=O)CCCCCCN1CCN(Cc3cc(O)cc(O)c3)CC1)C2`, the IC50 was > 10 µM.

For `COc1cc(CN2CCN(CCCCC(=O)N3Cc4cnn(C)c4Nc4ccccc43)CC2)cc(OC)c1`, the IC50 is > 10 µM.

Turning to `Cn1ncc2c1Nc1ccccc1N(C(=O)CCCCCCCN1CCN(Cc3cc(O)cc(O)c3)CC1)C2`, the IC50 came out at 4.67 µM.

Consider `COc1cc(CN2CCN(C(=O)NCc3ccc(C(=O)N4Cc5cnn(C)c5Nc5ccccc54)cc3C)CC2)cc(OC)c1`, for which the IC50 came to 1.11 µM.

Take `Cn1ncc2c1Nc1ccccc1N(C(=O)CCCCN1CCN(Cc3cc(O)cc(O)c3)CC1)C2`: the IC50 is > 10 µM.

Regarding `COc1cc(CN2CCN(CCCCCC(=O)N3Cc4cnn(C)c4Nc4ccccc43)CC2)cc(OC)c1`, the IC50 was 8.2 µM.

On to `Cn1ncc2c1Nc1ccccc1N(C(=O)CCCCCN1CCN(Cc3cc(O)cc(O)c3)CC1)C2`, for which the IC50 was > 10 µM.

Take `COc1cc(CN2CCN(CCCCCCCC(=O)N3Cc4cnn(C)c4Nc4ccccc43)CC2)cc(OC)c1`: the IC50 was 7.67 µM.

Another experiment addresses T1, Vasopressin V1a receptor. Briefly: Displacement of [3H]-vasopressin from human vasopressin 1a receptor expressed in HEK293 cells after 90 mins by microbeta 2 microplate-reader method. Format: cell-based.
Take `COc1cc(CN2CCN(CCCCCCC(=O)N3Cc4cnn(C)c4Nc4ccccc43)CC2)cc(OC)c1`: the Ki came to 0.195 µM. That is a sub-micromolar value.

As to `Cn1ncc2c1Nc1ccccc1N(C(=O)CCCCCCN1CCN(Cc3cc(O)cc(O)c3)CC1)C2`, the affinity, expressed as Ki, was 0.13 µM. Against the preceding compound, the Ki is about 1.5-fold lower.

`COc1cc(CN2CCN(CCCCC(=O)N3Cc4cnn(C)c4Nc4ccccc43)CC2)cc(OC)c1`: the affinity, expressed as Ki, was 0.409 µM.

Consider `Cn1ncc2c1Nc1ccccc1N(C(=O)CCCCCCCN1CCN(Cc3cc(O)cc(O)c3)CC1)C2`, for which affinity was put at a Ki of 0.064 µM.

In turn, `COc1cc(CN2CCN(C(=O)NCc3ccc(C(=O)N4Cc5cnn(C)c5Nc5ccccc54)cc3C)CC2)cc(OC)c1` yielded an inhibitory constant (Ki) of 0.062 µM.

Regarding `Cn1ncc2c1Nc1ccccc1N(C(=O)CCCCN1CCN(Cc3cc(O)cc(O)c3)CC1)C2`, the Ki was 0.466 µM. This Ki is about 7.5-fold higher than that of the compound before.

For `COc1cc(CN2CCN(CCCCCC(=O)N3Cc4cnn(C)c4Nc4ccccc43)CC2)cc(OC)c1`, the Ki stood at 0.266 µM. Against the preceding compound, the Ki is about 1.8-fold lower.

In turn, `Cn1ncc2c1Nc1ccccc1N(C(=O)CCCCCN1CCN(Cc3cc(O)cc(O)c3)CC1)C2` displayed a Ki of 0.449 µM. This Ki is about 1.7-fold higher than that of the compound before.

`COc1cc(CN2CCN(CCCCCCCC(=O)N3Cc4cnn(C)c4Nc4ccccc43)CC2)cc(OC)c1` showed a Ki of 0.248 µM.

The next experiment deals with T2, Oxytocin receptor (Homo sapiens, UniProt P30559).
T2 sequence (P30559 whole entry): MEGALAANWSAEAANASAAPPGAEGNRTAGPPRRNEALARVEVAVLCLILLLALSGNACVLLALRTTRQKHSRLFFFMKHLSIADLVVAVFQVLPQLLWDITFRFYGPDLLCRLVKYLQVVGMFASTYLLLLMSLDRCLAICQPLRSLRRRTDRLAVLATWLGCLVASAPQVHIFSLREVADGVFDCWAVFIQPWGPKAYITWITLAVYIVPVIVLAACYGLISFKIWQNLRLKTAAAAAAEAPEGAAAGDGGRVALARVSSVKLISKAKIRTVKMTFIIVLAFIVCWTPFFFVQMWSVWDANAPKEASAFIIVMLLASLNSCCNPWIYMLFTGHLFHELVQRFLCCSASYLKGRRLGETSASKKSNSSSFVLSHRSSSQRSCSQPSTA
As to the kind of experiment: Antagonist activity at human oxytocin receptor expressed in HEK293 cells assessed as inhibition of oxytocin induced IP1 accumulation pretreated for 30 mins measured 1 hr post Ab-Cryptate and IP1-d2 addition by HTRF assay. Format: functional, cell-based.
For `COc1cc(CN2CCN(CCCCCCC(=O)N3Cc4cnn(C)c4Nc4ccccc43)CC2)cc(OC)c1`, the IC50 was > 10 µM.

For `Cn1ncc2c1Nc1ccccc1N(C(=O)CCCCCCN1CCN(Cc3cc(O)cc(O)c3)CC1)C2`, the IC50 is > 10 µM.

Take `COc1cc(CN2CCN(CCCCC(=O)N3Cc4cnn(C)c4Nc4ccccc43)CC2)cc(OC)c1`: the IC50 is > 10 µM.

For `Cn1ncc2c1Nc1ccccc1N(C(=O)CCCCCCCN1CCN(Cc3cc(O)cc(O)c3)CC1)C2`, the IC50 was > 10 µM.

`COc1cc(CN2CCN(C(=O)NCc3ccc(C(=O)N4Cc5cnn(C)c5Nc5ccccc54)cc3C)CC2)cc(OC)c1`: the IC50 was 4.13 µM.

Take `Cn1ncc2c1Nc1ccccc1N(C(=O)CCCCN1CCN(Cc3cc(O)cc(O)c3)CC1)C2`: the IC50 was > 10 µM.

On to `COc1cc(CN2CCN(CCCCCC(=O)N3Cc4cnn(C)c4Nc4ccccc43)CC2)cc(OC)c1`, for which the IC50 is > 10 µM.

On to `Cn1ncc2c1Nc1ccccc1N(C(=O)CCCCCN1CCN(Cc3cc(O)cc(O)c3)CC1)C2`, for which the IC50 is > 10 µM.

For the compound `COc1cc(CN2CCN(CCCCCCCC(=O)N3Cc4cnn(C)c4Nc4ccccc43)CC2)cc(OC)c1`, the IC50 was > 10 µM.

The next experiment has as its target T2, Oxytocin receptor. As to the kind of experiment: Displacement of [3H]-oxytocin from human oxytocin receptor expressed in HEK293 cells after 90 mins by microbeta 2 microplate reader analysis. Format: cell-based.
For the compound `COc1cc(CN2CCN(CCCCCCC(=O)N3Cc4cnn(C)c4Nc4ccccc43)CC2)cc(OC)c1`, the Ki was > 10 µM.

Consider `Cn1ncc2c1Nc1ccccc1N(C(=O)CCCCCCN1CCN(Cc3cc(O)cc(O)c3)CC1)C2`, for which the Ki was > 10 µM.

Consider `COc1cc(CN2CCN(CCCCC(=O)N3Cc4cnn(C)c4Nc4ccccc43)CC2)cc(OC)c1`, for which the Ki is > 10 µM.

Regarding `Cn1ncc2c1Nc1ccccc1N(C(=O)CCCCCCCN1CCN(Cc3cc(O)cc(O)c3)CC1)C2`, the affinity corresponds to a Ki of 8.35 µM.

As for `COc1cc(CN2CCN(C(=O)NCc3ccc(C(=O)N4Cc5cnn(C)c5Nc5ccccc54)cc3C)CC2)cc(OC)c1`, affinity was put at a Ki of 0.801 µM.

On to `Cn1ncc2c1Nc1ccccc1N(C(=O)CCCCN1CCN(Cc3cc(O)cc(O)c3)CC1)C2`, for which the Ki is > 10 µM.

With `COc1cc(CN2CCN(CCCCCC(=O)N3Cc4cnn(C)c4Nc4ccccc43)CC2)cc(OC)c1`, the Ki was 7.45 µM.

For `Cn1ncc2c1Nc1ccccc1N(C(=O)CCCCCN1CCN(Cc3cc(O)cc(O)c3)CC1)C2`, the inhibition constant (Ki) was > 10 µM.

Take `COc1cc(CN2CCN(CCCCCCCC(=O)N3Cc4cnn(C)c4Nc4ccccc43)CC2)cc(OC)c1`: the Ki was > 10 µM.

Another experiment addresses T1, Vasopressin V1a receptor. As to the kind of experiment: Agonist activity at human vasopressin 1a receptor expressed in HEK293 cells assessed as increase in IP1 accumulation preincubated for 1 hr followed by addition of Ab-Cryptate and IP1-d2 by HTRF assay. It counts as functional, cell-based.
`COc1cc(CN2CCN(CCCCCCC(=O)N3Cc4cnn(C)c4Nc4ccccc43)CC2)cc(OC)c1`: the EC50 was > 10 µM.

With `Cn1ncc2c1Nc1ccccc1N(C(=O)CCCCCCN1CCN(Cc3cc(O)cc(O)c3)CC1)C2`, the EC50 was > 10 µM.

For `COc1cc(CN2CCN(CCCCC(=O)N3Cc4cnn(C)c4Nc4ccccc43)CC2)cc(OC)c1`, the EC50 is > 10 µM.

`Cn1ncc2c1Nc1ccccc1N(C(=O)CCCCCCCN1CCN(Cc3cc(O)cc(O)c3)CC1)C2`: the EC50 is > 10 µM.

Regarding `COc1cc(CN2CCN(C(=O)NCc3ccc(C(=O)N4Cc5cnn(C)c5Nc5ccccc54)cc3C)CC2)cc(OC)c1`, the EC50 was > 10 µM.

`Cn1ncc2c1Nc1ccccc1N(C(=O)CCCCN1CCN(Cc3cc(O)cc(O)c3)CC1)C2`: the EC50 was > 10 µM.

For the compound `COc1cc(CN2CCN(CCCCCC(=O)N3Cc4cnn(C)c4Nc4ccccc43)CC2)cc(OC)c1`, the EC50 is > 10 µM.

Turning to `Cn1ncc2c1Nc1ccccc1N(C(=O)CCCCCN1CCN(Cc3cc(O)cc(O)c3)CC1)C2`, the EC50 was > 10 µM.

Turning to `COc1cc(CN2CCN(CCCCCCCC(=O)N3Cc4cnn(C)c4Nc4ccccc43)CC2)cc(OC)c1`, the EC50 is > 10 µM.

The next experiment has as its target T2, Oxytocin receptor. As to the kind of experiment: Agonist activity at human oxytocin receptor expressed in HEK293 cells assessed as increase in IP1 accumulation preincubated for 1 hr followed by addition of Ab-Cryptate and IP1-d2 by HTRF assay. Format: functional, cell-based.
As for `COc1cc(CN2CCN(CCCCCCC(=O)N3Cc4cnn(C)c4Nc4ccccc43)CC2)cc(OC)c1`, the EC50 is > 10 µM.

Regarding `Cn1ncc2c1Nc1ccccc1N(C(=O)CCCCCCN1CCN(Cc3cc(O)cc(O)c3)CC1)C2`, the EC50 was > 10 µM.

For the compound `COc1cc(CN2CCN(CCCCC(=O)N3Cc4cnn(C)c4Nc4ccccc43)CC2)cc(OC)c1`, the EC50 is > 10 µM.

With `Cn1ncc2c1Nc1ccccc1N(C(=O)CCCCCCCN1CCN(Cc3cc(O)cc(O)c3)CC1)C2`, the EC50 is > 10 µM.

On to `COc1cc(CN2CCN(C(=O)NCc3ccc(C(=O)N4Cc5cnn(C)c5Nc5ccccc54)cc3C)CC2)cc(OC)c1`, for which the EC50 is > 10 µM.

Consider `Cn1ncc2c1Nc1ccccc1N(C(=O)CCCCN1CCN(Cc3cc(O)cc(O)c3)CC1)C2`, for which the EC50 is > 10 µM.

Take `COc1cc(CN2CCN(CCCCCC(=O)N3Cc4cnn(C)c4Nc4ccccc43)CC2)cc(OC)c1`: the EC50 was > 10 µM.

As for `Cn1ncc2c1Nc1ccccc1N(C(=O)CCCCCN1CCN(Cc3cc(O)cc(O)c3)CC1)C2`, the EC50 is > 10 µM.

As for `COc1cc(CN2CCN(CCCCCCCC(=O)N3Cc4cnn(C)c4Nc4ccccc43)CC2)cc(OC)c1`, the EC50 was > 10 µM.

The values above are taken from ChEMBL document CHEMBL3763073 (Eur J Med Chem, 2016).
